Data set [1] in a line: Cytotoxicity against human MT4 cells. Type of data set: cell-based.
For data set [2], the system named is Human immunodeficiency virus 1. The data set can be described thus: Antiviral activity against wild-type HIV-1 infected in human MT4 cells. It counts as functional, organism-based. As to conditions: Human immunodeficiency virus 1, MT4.
Data set [3] is described as follows: Selectivity index, ratio of CC50 for human MT4 cells to EC50 for wild-type HIV-1 infected in human MT4 cells. Type of data set: toxicity, cell-based. As to conditions: uninfected and infected with wild-type HIV-1, read-out: Ratio CC50/EC50.
Data set [4] can be described thus: Selectivity index, ratio of CC50 for human MT4 cells to EC50 for HIV-1 harboring reverse transcriptase K103N/Y181C double mutant infected in human MT4 cells. It counts as toxicity, cell-based. As to conditions: read-out: Ratio CC50/EC50.
Data set [5] has as its system Human immunodeficiency virus 1. The data set can be described thus: Antiviral activity against HIV-1 harboring reverse transcriptase K103N/Y181C double mutant infected in human MT4 cells. Type of data set: functional, organism-based. The note with it: Human immunodeficiency virus 1, MT4.
Data set [6] deals with Human immunodeficiency virus 1. The data set can be described thus: Antiviral activity against HIV-1 3B infected in human MT4 cells assessed as cell viability after 5 days by MTT assay. Type of data set: functional, organism-based. The note with it: Human immunodeficiency virus 1, 3B, MT4, 120 h. On the technique in general: Tetrazolium dyes change colour on reduction, which living cells bring about.

A word on the CC50: it is the concentration at which the toxic effect on the cells reaches its halfway point. One may read the EC50 as the midpoint of the concentration-response curve. As to `O=C(CSc1nnsc1-c1cccc2ccccc12)Nc1cccnc1Cl`, in data set [1], the CC50 was 121 µM. The half-maximal effective concentration (EC50) in data set [2] turned out to be 0.019 µM; in data set [5] it was 5.11 µM. Moreover, the selectivity ratio in data set [3] was 6440; in data set [4], 24.
As to `O=C(CSc1sc(Cl)nc1-c1ccc(Br)cc1Br)Nc1ccccc1[N+](=O)[O-]`, the EC50 in data set [6] is 2.09 µM.
In the case of `O=C(CSc1nnsc1-c1cccc2ccccc12)Nc1ccccc1Br`, half-maximal cytotoxicity in data set [1] (CC50) was put at 172 µM. Further, the EC50 came to 0.044 µM in data set [2] and 34.4 µM in data set [5]. Moreover, the selectivity ratio in data set [3] amounted to 3920; in data set [4] it was 5.

The values above are taken from ChEMBL document CHEMBL3621063, “Discovery of potent HIV-1 non-nucleoside reverse transcriptase inhibitors from arylthioacetanilide structural motif” (Eur J Med Chem, 2015).
